Patent publication US7700284B2, “Reporter transcription unit populations and kits comprising same” (Attagene, Inc., priority 2004, dated 2010)

Tests used:
ATF2 TAD RTU = assay: MAPK pathway TAD RTU profiling in HEK293 cells, ATF2 TAD RTU; format: cell-based, human; conditions: HEK293, PMA 10 uM, 6 hours induction
c-Jun TAD RTU = assay: MAPK pathway TAD RTU profiling in HEK293 cells, c-Jun TAD RTU; format: cell-based, human; conditions: HEK293, PMA 10 uM, 6 hours induction
[1] = system: Elk-1 TAD RTU (ERK1/2 pathway); assay: MAPK pathway TAD RTU profiling in HEK293 cells, Elk-1 TAD RTU; format: cell-based, human; conditions: HEK293, PMA 10 uM, 6 hours induction, versus control cells
metal-sensitive MTΔ RTU = assay: Multiplexed RTU reporter profiling in transfected HEK293 cells, MTΔ RTU; conditions: HEK293, 100 μM, 6 hrs stimulation, 11-RTU library
NF-κB RTU = assay: Multiplexed RTU reporter profiling in transfected HEK293 cells, NF-κB RTU; conditions: HEK293, 100 u per ml, 6 hrs stimulation, 11-RTU library
[2] = biological target: GR RTU (Gal4DBD-GR fusion) (Homo sapiens, UniProt P04150); conditions: HEK293, 10 uM, 6 hrs induction, versus non-induced cells
Chain of GR RTU (Gal4DBD-GR fusion) (P04150 486-777): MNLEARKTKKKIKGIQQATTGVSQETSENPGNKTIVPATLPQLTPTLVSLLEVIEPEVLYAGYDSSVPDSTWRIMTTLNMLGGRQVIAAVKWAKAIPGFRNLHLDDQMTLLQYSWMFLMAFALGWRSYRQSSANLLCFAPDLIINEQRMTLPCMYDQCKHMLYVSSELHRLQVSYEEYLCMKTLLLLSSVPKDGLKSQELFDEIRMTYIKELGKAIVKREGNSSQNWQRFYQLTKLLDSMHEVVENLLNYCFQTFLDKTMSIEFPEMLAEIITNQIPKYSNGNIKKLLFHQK

CCCCCCCCCCCCCC(=O)O[C@@H]1[C@@H](C)[C@@]2(O)[C@@H](C=C(CO)C[C@@]3(O)C(=O)C(C)=C[C@@H]23)[C@@H]2C(C)(C)[C@]12OC(C)=O [PMA, 4α-Phorbol 12-myristate 13-acetate]
activity of ATF2 TAD RTU (ATF2 TAD RTU): remained unchanged | activity of c-Jun TAD RTU (c-Jun TAD RTU): remained unchanged | activation of the Elk-1 TAD RTU [1]: ~20 fold

[Cl-].[Cl-].[Zn+2] [ZnCl2]
induction of MTΔ RTU (stimulated versus nonstimulated cells) (metal-sensitive MTΔ RTU): induced

IL-1β: Human recombinant IL-1β purchased from Roche; NF-κB inducer
activation of NF-κB RTU (stimulated versus nonstimulated cells) (NF-κB RTU): specifically activated

dexamethasone [Dexamethazone]
increase of reporter peak produced by GR RTU [2]: 10 fold
